In ChEMBL document CHEMBL1201862, “PubChem BioAssay data set” (2004):
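Briefly, cells in 96-well plates were exposed to five compound concentrations for 48 h, and endpoints were estimated by linear interpolation. GI50: concentration for 50% inhibition of growth.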 The source made the active and inactive calls. Rule as the data show it: active = GI50 up to about 1.1 µM and inactive = higher.

Legend:
Assay in all cases: NCI-60 cell line screen, 48 h
TK-10 = system: TK-10
SR = system: SR
SNB-78 = system: SNB-78
CAKI-1 = system: CAKI-1
SN12C = system: SN12C
EKVX = system: EKVX
XF498 = system: XF498
CCRF-CEM = system: CCRF-CEM
RPMI-8226 = system: RPMI-8226
LOX IMVI = system: LOX IMVI
ACHN = system: ACHN
SNB-19 = system: SNB-19
A549 = system: A549
LXFL 529 = system: LXFL 529
HCT-116 = system: HCT-116
SK-MEL-5 = system: SK-MEL-5
M19-MEL = system: M19-MEL
A498 = system: A498
SK-MEL-28 = system: SK-MEL-28
OVCAR-4 = system: OVCAR-4
SF-268 = system: SF-268
UACC-62 = system: UACC-62
MOLT-4 = system: MOLT-4
OVCAR-3 = system: OVCAR-3
DLD-1 = system: DLD-1
M14 = system: M14
NCI-H460 = system: NCI-H460
NCI-H226 = system: NCI-H226
HCC 2998 = system: HCC 2998
U-251 = system: U-251
Malme-3M = system: Malme-3M
UO-31 = system: UO-31
SF-295 = system: SF-295
K562 = system: K562
COLO 205 = system: COLO 205
HOP-62 = system: HOP-62
NCI-H23 = system: NCI-H23
DMS-273 = system: DMS-273
HL-60 = system: HL-60
NCI-H522 = system: NCI-H522
UACC-257 = system: UACC-257
SNB-75 = system: SNB-75
RXF 393 = system: RXF 393
IGROV-1 = system: IGROV-1
KM-20L2 = system: KM-20L2
SF-539 = system: SF-539
SK-OV-3 = system: SK-OV-3
SW-620 = system: SW-620
OVCAR-5 = system: OVCAR-5
SK-MEL-2 = system: SK-MEL-2
RXF 631 = system: RXF 631
HT-29 = system: HT-29
KM12 = system: KM12
DMS-114 = system: DMS-114
HOP-92 = system: HOP-92
HCT-15 = system: HCT-15
786-0 = system: 786-0
HOP-18 = system: HOP-18
OVCAR-8 = system: OVCAR-8

O=[N+]([O-])c1nc(-c2ccccn2)[nH]c1[N+](=O)[O-]
GI50 (TK-10): > 100 µM (inactive)
GI50 (SR): 32.2 µM (inactive)
GI50 (SNB-78): > 100 µM (inactive)
GI50 (CAKI-1): 57.7 µM (inactive)
GI50 (SN12C): 71.6 µM (inactive)
GI50 (EKVX): > 100 µM (inactive)
GI50 (XF498): > 100 µM (inactive)
GI50 (CCRF-CEM): 33.3 µM (inactive)
GI50 (RPMI-8226): > 100 µM (inactive)
GI50 (LOX IMVI): 68.7 µM (inactive)
GI50 (ACHN): 64.3 µM (inactive)
GI50 (SNB-19): > 100 µM (inactive)
GI50 (A549): 53.8 µM (inactive)
GI50 (LXFL 529): 89.1 µM (inactive)
GI50 (HCT-116): 22.3 µM (inactive)
GI50 (SK-MEL-5): 79.3 µM (inactive)
GI50 (M19-MEL): 57.7 µM (inactive)
GI50 (A498): > 100 µM (inactive)
GI50 (SK-MEL-28): 54.7 µM (inactive)
GI50 (OVCAR-4): 44.2 µM (inactive)
GI50 (SF-268): 43.6 µM (inactive)
GI50 (UACC-62): 26.3 µM (inactive)
GI50 (MOLT-4): 39.2 µM (inactive)
GI50 (OVCAR-3): 59.2 µM (inactive)
GI50 (DLD-1): 70.5 µM (inactive)
GI50 (M14): 80.5 µM (inactive)
GI50 (NCI-H460): 36.6 µM (inactive)
GI50 (NCI-H226): 74.1 µM (inactive)
GI50 (HCC 2998): 96.4 µM (inactive)
GI50 (U-251): 55.2 µM (inactive)
GI50 (Malme-3M): 57.4 µM (inactive)
GI50 (UO-31): 70.3 µM (inactive)
GI50 (SF-295): > 100 µM (inactive)
GI50 (K562): > 100 µM (inactive)
GI50 (COLO 205): 45.5 µM (inactive)
GI50 (HOP-62): > 100 µM (inactive)
GI50 (NCI-H23): 42.4 µM (inactive)
GI50 (DMS-273): 65.8 µM (inactive)
GI50 (HL-60): 30.1 µM (inactive)
GI50 (NCI-H522): 18.6 µM (inactive)
GI50 (UACC-257): 53.2 µM (inactive)
GI50 (SNB-75): 64 µM (inactive)
GI50 (RXF 393): 76.7 µM (inactive)
GI50 (IGROV-1): > 100 µM (inactive)
GI50 (KM-20L2): 39.6 µM (inactive)
GI50 (SF-539): 39.6 µM (inactive)
GI50 (SK-OV-3): > 100 µM (inactive)
GI50 (SW-620): 66.2 µM (inactive)
GI50 (OVCAR-5): > 100 µM (inactive)
GI50 (SK-MEL-2): > 100 µM (inactive)
GI50 (RXF 631): 57.8 µM (inactive)
GI50 (HT-29): 47.5 µM (inactive)
GI50 (KM12): > 100 µM (inactive)
GI50 (DMS-114): 19 µM (inactive)
GI50 (HOP-92): > 100 µM (inactive)

CCOC(=O)c1ncn2c1[nH]c(=S)c1ccccc12
GI50 (TK-10): > 100 µM (inactive)
GI50 (HCT-15): > 100 µM
GI50 (CAKI-1): > 100 µM (inactive)
GI50 (SN12C): > 100 µM (inactive)
GI50 (EKVX): > 100 µM (inactive)
GI50 (CCRF-CEM): 50.2 µM (inactive)
GI50 (RPMI-8226): 31.3 µM (inactive)
GI50 (LOX IMVI): 61.7 µM (inactive)
GI50 (ACHN): > 100 µM (inactive)
GI50 (SNB-19): > 100 µM (inactive)
GI50 (A549): > 100 µM (inactive)
GI50 (LXFL 529): > 100 µM (inactive)
GI50 (HCT-116): > 100 µM (inactive)
GI50 (SK-MEL-5): > 100 µM (inactive)
GI50 (M19-MEL): > 100 µM (inactive)
GI50 (A498): > 100 µM (inactive)
GI50 (SK-MEL-28): > 100 µM (inactive)
GI50 (OVCAR-4): > 100 µM (inactive)
GI50 (SF-268): > 100 µM (inactive)
GI50 (UACC-62): > 100 µM (inactive)
GI50 (MOLT-4): > 100 µM (inactive)
GI50 (OVCAR-3): > 100 µM (inactive)
GI50 (DLD-1): > 100 µM (inactive)
GI50 (M14): > 100 µM (inactive)
GI50 (NCI-H460): > 100 µM (inactive)
GI50 (NCI-H226): > 100 µM (inactive)
GI50 (HCC 2998): > 100 µM (inactive)
GI50 (U-251): 46.9 µM (inactive)
GI50 (Malme-3M): > 100 µM (inactive)
GI50 (UO-31): > 100 µM (inactive)
GI50 (SF-295): > 100 µM (inactive)
GI50 (K562): 91.6 µM (inactive)
GI50 (COLO 205): 49.8 µM (inactive)
GI50 (HOP-62): > 100 µM (inactive)
GI50 (NCI-H23): > 100 µM (inactive)
GI50 (DMS-273): 44.1 µM (inactive)
GI50 (786-0): > 100 µM (inactive)
GI50 (HL-60): > 100 µM (inactive)
GI50 (NCI-H522): 73.6 µM (inactive)
GI50 (UACC-257): > 100 µM (inactive)
GI50 (SNB-75): > 100 µM (inactive)
GI50 (RXF 393): > 100 µM (inactive)
GI50 (IGROV-1): > 100 µM (inactive)
GI50 (HOP-18): > 100 µM (inactive)
GI50 (KM-20L2): > 100 µM (inactive)
GI50 (SF-539): > 100 µM (inactive)
GI50 (SK-OV-3): > 100 µM (inactive)
GI50 (SW-620): 22.9 µM (inactive)
GI50 (OVCAR-8): > 100 µM (inactive)
GI50 (OVCAR-5): > 100 µM (inactive)
GI50 (SK-MEL-2): > 100 µM (inactive)
GI50 (RXF 631): > 100 µM (inactive)
GI50 (HT-29): > 100 µM (inactive)
GI50 (KM12): > 100 µM (inactive)
GI50 (DMS-114): 49.1 µM (inactive)
GI50 (HOP-92): > 100 µM (inactive)
